Values of other authors as cited in patent US20060009430A1, “Composition for the prevention and treatment of the detrimental effects of dihydrotestosterone” (priority 2004, published 2006).

Experiments:
[1] = tested on: localized prostate cancer; settings: 15 mg twice per day orally, 3 weeks
[2] = tested on: prostate; settings: rats, in combination with finasteride
[3] = tested on: cancer; settings: in vivo
[4] = tested on: prostate cancer; settings: 200 μg daily for 4.5 years
[5] = tested on: advanced prostate cancer; settings: men with most dietary selenium versus lowest intake

## CC(C)=CCC/C(C)=C/C=C/C(C)=C/C=C/C(C)=C/C=C/C=C(C)/C=C/C=C(C)/C=C/C=C(\C)CCC=C(C)C [lycopene]
[1]; biopsy
  metastasis: reduced metastasis
  regression and malignancy: signs of regression and reduced malignancy
  tumor size: smaller tumors
[1]; versus no intervention
  PSA: significant reduction

## O=c1c(O)c(-c2ccc(O)c(O)c2)oc2cc(O)cc(O)c12 [quercetin]
[2]
  prostate weight: reduce prostate weight

## [Se] [selenium]
[3]
  reduction of cancer mortality and morbidity: approximately 50%
  risk of lung, prostate and colon cancer: reduced significantly
[4]
  skin cancer: no changes
  total, colorectal and lung cancer: significant benefits
[4]; 6.5 years follow-up, 974 men
  reduction in the incidence of prostate cancer (secondary endpoint): 63%
[4]; placebo group 35
  number that developed prostate cancer: 13
[5]
  fewer cases of advanced prostate cancer: 65%
